US11331299B2, “Medicinal use of serrulatane diterpenes” (The University of Sydney, priority 2016, dated 2022)
pEC50, pIC50: −log10 of the molar value. Where two headings read alike, the source gives them in different places.

Test system: 280 human cancer cell lines
Test: OncoPanel cell proliferation assay (10-day)
Assay type: cell-based
Details: for pEC50: read-out: Cell Count EC50; for pIC50: read-out: Cell Count IC50
[1] = Homo sapiens, 22Rv1, 22Rv1, Prostate
[2] = Homo sapiens, 786-0, 786-O, Kidney
[3] = Homo sapiens, A7, Skin (Melanoma)
[4] = Homo sapiens, A101D, Skin (Melanoma)
[5] = Homo sapiens, A 172, A172, CNS - Glioma
[6] = Homo sapiens, A253, A-253, Head and Neck
[7] = Homo sapiens, A388, Head and Neck
[8] = Homo sapiens, A498, A498, Kidney
[9] = Homo sapiens, A549, A549, Lung - NSCLC
[10] = Homo sapiens, A673, A-673, Soft Tissue - Sarcoma
[11] = Homo sapiens, A704, A-704, Kidney
[12] = Homo sapiens, A-375, A375, Skin (Melanoma)
[13] = Homo sapiens, A-427, A427, Lung - NSCLC
[14] = Homo sapiens, A-431, A431, Head and Neck
[15] = Homo sapiens, AN3-CA, AN3 CA, Female GU - Uterus
[16] = Homo sapiens, ARH-77, ARH-77, Myeloma
[17] = Homo sapiens, ASPC1, AsPC-1, Pancreas
[18] = Homo sapiens, AU565, AU565, Breast
[19] = Homo sapiens, BCP-1, BCP-1, Lymphoma
[20] = Homo sapiens, BE(2)-C, BE(2)C, CNS - Neuroblastoma
[21] = Homo sapiens, BFTC-905, BFTC-905, Bladder
[22] = Homo sapiens, BHT-101, BHT-101, Endocrine - Thyroid
[23] = Homo sapiens, BM-1604, BM-1604, Prostate
[24] = Homo sapiens, BPH-1, BPH1, Prostate
[25] = Homo sapiens, BT-20, BT20, Breast

## CC(C)=CCC[C@H](C)[C@@H]1CC[C@@H](C)c2c1cc(C)c(O)c2O [Compound 4, 7,8-dihydroxyserrulat-14-ene]
GI50 range 0.03-0.099 μM, of 280 cell types
  Number of cell types, GI Activity Potent: 0
GI50 range 0.1-0.99 μM, of 280 cell types
  Number of cell types, GI Activity moderately potent: 1
GI50 range 1-2.99 μM, of 280 cell types
  Number of cell types, GI Activity Strong: 11
GI50 range 3-9.99 μM, of 280 cell types
  Number of cell types, GI Activity moderately strong: 125
GI50 range 10-30.00 μM, of 280 cell types
  Number of cell types, GI Activity weak: 130
GI50 range >30 μM, of 280 cell types
  Number of cell types, GI Activity very weak: 13
Homo sapiens, 12 cell lines with moderately potent to strong activity, read-out: GI50
  GI50: 0.68 to 2.92 µM
[1]
  pEC50: 5.04
  pIC50: 5.04
Homo sapiens, 22Rv1, 22Rv1, Prostate, read-out: Cell Count GI50
  GI50: 9 µM
Homo sapiens, 647-V, Bladder
  pEC50: 5.22
  pIC50: 5.22
Homo sapiens, 647-V, Bladder, read-out: Cell Count GI50
  GI50: 5.99 µM
Homo sapiens, 769-P, Kidney
  pEC50: 5.43
  pIC50: 5.43
Homo sapiens, 769-P, Kidney, read-out: Cell Count GI50
  GI50: 3.71 µM
[2]
  pEC50: 4.85
  pIC50: 4.85
Homo sapiens, 786-0, 786-O, Kidney, read-out: Cell Count GI50
  GI50: 13.9 µM
Homo sapiens, 5637, Bladder
  pEC50: 4.82
  pIC50: 4.82
Homo sapiens, 5637, Bladder, read-out: Cell Count GI50
  GI50: 15.1 µM
[3]
  pEC50: 4.98
  pIC50: 4.98
Homo sapiens, A7, Skin (Melanoma), read-out: Cell Count GI50
  GI50: 10.5 µM
[4]
  pEC50: < 4.52
  pIC50: < 4.52
Homo sapiens, A101D, Skin (Melanoma), read-out: Cell Count GI50
  GI50: > 30 µM
[5]
  pEC50: 5.09
  pIC50: 5.09
Homo sapiens, A 172, A172, CNS - Glioma, read-out: Cell Count GI50
  GI50: 8.03 µM
[6]
  pEC50: 4.74
  pIC50: 4.74
Homo sapiens, A253, A-253, Head and Neck, read-out: Cell Count GI50
  GI50: 18.1 µM
[7]
  pEC50: 5.12
  pIC50: 5.12
Homo sapiens, A388, Head and Neck, read-out: Cell Count GI50
  GI50: 7.59 µM
[8]
  pEC50: 4.91
  pIC50: 4.91
Homo sapiens, A498, A498, Kidney, read-out: Cell Count GI50
  GI50: 12.2 µM
[9]
  pEC50: 4.96
  pIC50: 4.96
Homo sapiens, A549, A549, Lung - NSCLC, read-out: Cell Count GI50
  GI50: 10.8 µM
[10]
  pEC50: 5.54
  pIC50: 5.54
Homo sapiens, A673, A-673, Soft Tissue - Sarcoma, read-out: Cell Count GI50
  GI50: 2.87 µM
[11]
  pEC50: 5.24
  pIC50: 5.24
Homo sapiens, A704, A-704, Kidney, read-out: Cell Count GI50
  GI50: 5.41 µM
[12]
  pEC50: 5.24
  pIC50: 5.24
Homo sapiens, A-375, A375, Skin (Melanoma), read-out: Cell Count GI50
  GI50: 5.74 µM
[13]
  pEC50: 5.00
  pIC50: 5.00
Homo sapiens, A-427, A427, Lung - NSCLC, read-out: Cell Count GI50
  GI50: 9.98 µM
[14]
  pEC50: 4.61
  pIC50: 4.61
Homo sapiens, A-431, A431, Head and Neck, read-out: Cell Count GI50
  GI50: 24.8 µM
Homo sapiens, ACHN, Kidney
  pEC50: 5.02
  pIC50: 5.02
Homo sapiens, ACHN, Kidney, read-out: Cell Count GI50
  GI50: 9.47 µM
Homo sapiens, AGS, Stomach
  pEC50: 5.28
  pIC50: 5.28
Homo sapiens, AGS, Stomach, read-out: Cell Count GI50
  GI50: 5.24 µM
[15]
  pEC50: 5.02
  pIC50: 5.02
Homo sapiens, AN3-CA, AN3 CA, Female GU - Uterus, read-out: Cell Count GI50
  GI50: 9.43 µM
[16]
  pEC50: 4.87
  pIC50: 4.87
Homo sapiens, ARH-77, ARH-77, Myeloma, read-out: Cell Count GI50
  GI50: 13.4 µM
[17]
  pEC50: 4.83
  pIC50: 4.83
Homo sapiens, ASPC1, AsPC-1, Pancreas, read-out: Cell Count GI50
  GI50: 14.5 µM
[18]
  pEC50: 5.00
  pIC50: 5.00
Homo sapiens, AU565, AU565, Breast, read-out: Cell Count GI50
  GI50: 10 µM
Homo sapiens, BC-1, Lymphoma
  pEC50: 5.38
  pIC50: 5.38
Homo sapiens, BC-1, Lymphoma, read-out: Cell Count GI50
  GI50: 4.16 µM
[19]
  pEC50: 5.05
  pIC50: 5.05
Homo sapiens, BCP-1, BCP-1, Lymphoma, read-out: Cell Count GI50
  GI50: 8.75 µM
[20]
  pEC50: 4.88
  pIC50: 4.88
Homo sapiens, BE(2)-C, BE(2)C, CNS - Neuroblastoma, read-out: Cell Count GI50
  GI50: 13 µM
[21]
  pEC50: 5.01
  pIC50: 5.01
Homo sapiens, BFTC-905, BFTC-905, Bladder, read-out: Cell Count GI50
  GI50: 9.68 µM
[22]
  pEC50: 5.17
  pIC50: 5.17
Homo sapiens, BHT-101, BHT-101, Endocrine - Thyroid, read-out: Cell Count GI50
  GI50: 6.77 µM
[23]
  pEC50: < 4.52
  pIC50: < 4.52
Homo sapiens, BM-1604, BM-1604, Prostate, read-out: Cell Count GI50
  GI50: > 30 µM
[24]
  pEC50: 4.76
  pIC50: 4.76
Homo sapiens, BPH-1, BPH1, Prostate, read-out: Cell Count GI50
  GI50: 17.3 µM
[25]
  pEC50: 4.85
  pIC50: 4.84
Homo sapiens, BT-20, BT20, Breast, read-out: Cell Count GI50
  GI50: 13.9 µM
Homo sapiens, BT-474, BT474, Breast
  pEC50: 4.59
